Source: US20120316105A1, “Polymyxin Derivates Useful As Antibacterial Agents” (priority 2011, published 2012)
Where two headings read alike, the source gives them in different places. Numbered stars: 1 amine (or outer) side, 2 acyl side, 3 side chain; on linkers, the order of the positions; unused ones are H or OH. Bridge positions count the residues as written; N and C are the ends. Square brackets hold non-standard residues; d marks the D form. Peptide text beside a SMILES is read from it. * marks the point of attachment. Benzoyl(4-OPh) = O=C(c1ccc(Oc2ccccc2)cc1)*; Benzoyl(4-Ph) = O=C(c1ccc(-c2ccccc2)cc1)*; X33 = N#Cc1ccc(-c2cc(C(=O)*)ccc2Cl)cc1; X26 = O=C(c1ccnc(-c2ccc(Cl)cc2)c1)*; X38 = O=S(=O)(c1cccc(-c2ccccc2)c1)*; X20 = Cc1ccc(-c2cccc(C(=O)*)c2)cc1; X10 = COc1nc(-c2ccccc2)ccc1C(=O)*; X36 = c1ccc(-c2cccc(N*)c2)cc1; Dab = NCC[C@H](N)C(=O)O; Dap = NC[C@H](N)C(=O)O; CO = O=C([*:1])[*:2]

Experiments:
[1] = Cytotoxicity assay (LDH release), hRPTEC; format: cell-based, human; conditions: human
How it was run: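 hRPTEC grown 72 h in REGM, then exposed to compounds at 100, 67, 44, 30, 20 and 13 micromolar for 24 h at 37° C, 5% CO2. LDH released into supernatant measured; TC50 (micromolar) derived. Compounds tested as trifluoroacetate salts unless otherwise noted.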

[2] = system: AB-1649, polymyxin-resistant clinical isolate of Acinetobacter baumannii; format: cell-based
How it was run: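 MIC and MBC were measured by CLSI broth dilution methods (M7-A8, M100-S20, M26-A) against a polymyxin-resistant clinical isolate and reported in mg/L. Compounds were tested as trifluoroacetate salts, with one exception tested as the sulfate.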

[3] = system: PA-1646, polymyxin-resistant clinical isolate of Pseudomonas aeruginosa; format: cell-based
How it was run: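 Broth dilution MIC and bactericidal (MBC) testing per CLSI methods (M7-A8, M100-S20, M26-A) against polymyxin-resistant clinical P. aeruginosa isolate PA-1646. Compounds tested as trifluoroacetate salts, one as sulfate salt; values in mg/L.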

[4] = system: EC-1, mouse virulent strain of Escherichia coli; format: cell-based; conditions: E. coli EC-1; overnight incubation, lower of duplicate values; trifluoroacetate salt (Example 1 and PMB sulfate)
How it was run: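 Compounds were tested mostly as trifluoroacetate salts. Duplicate CLSI broth-dilution MICs were read visually after overnight incubation over 2-fold dilutions, with the lower of duplicates within 2-fold taken. QC organisms and reference drugs were included in each run.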

[5] = system: AB-1649, polymyxin-resistant clinical isolate of Acinetobacter baumannii; format: cell-based; remark: listed apart in the source
How it was run: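 Broth dilution MIC per CLSI against the polymyxin-resistant A. baumannii isolate, 2-fold dilutions, overnight incubation, visual read of lowest concentration inhibiting growth. Run in duplicate, lower value reported when within 2-fold; MBC per CLSI M26-A guideline.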

[6] = system: Pseudomonas aeruginosa strain PA01; format: cell-based
How it was run: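 CLSI broth dilution against P. aeruginosa PA01 with two-fold concentration steps and overnight incubation; MIC is lowest concentration visibly inhibiting growth versus drug-free control, in mg/L. Compounds tested as trifluoroacetate salts, in duplicate, lower value reported if within 2-fold; control organisms and reference compounds included.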

[7] = system: AB-3167, clinical isolate of Acinetobacter baumannii; format: cell-based
How it was run: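 Broth dilution MIC per CLSI (M7-A8, M100-S20, M26-A for bactericidal), 2-fold dilution series, overnight incubation, visual read of lowest concentration inhibiting growth versus drug-free control. Duplicates run; lower value reported if within 2-fold, otherwise repeated. Compounds tested as trifluoroacetate salts; QC strains and reference compounds required in range.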

[8] = system: PA-1646, polymyxin-resistant clinical isolate of Pseudomonas aeruginosa; format: cell-based; remark: listed apart in the source
How it was run: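 Broth dilution MIC per CLSI with 2-fold concentration steps, read visually after overnight incubation as lowest concentration inhibiting growth; duplicates within 2-fold, lower value reported, with QC strains and reference compounds. Compounds tested as trifluoroacetate salts, polymyxin B as sulfate.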

[9] = AB-1649, polymyxin-resistant clinical isolate of
[10] = PA-1646, polymyxin-resistant clinical isolate of

SMILES	CC50 at 24 h [1]	AB-1649 MBC [2, 9]	PA-1646 MBC [3, 10]	EC-1 MIC [4]	AB-1649 MIC [5, 9]	PA01 MIC ([6]; strain)	AB-3167 MIC ([7]; AB-3167, clinical isolate of)	PA-1646 MIC [8, 10]	CC50 at 24 h ([1]; Human Renal Proximal Tubule Epithelial cells (hRPTEC), hRPTEC, 24 hours treatment, LDH release, Toxic Concentration 50%, read-out: hRPTEC TC50)	AB-1649 MBC ([2]; A. baumannii AB-1649, tested as trifluoroacetate salt (Example 1 and PMB as sulfate salt))	PA-1646 MBC ([3]; P. aeruginosa PA-1646, tested as trifluoroacetate salt (Example 1 and PMB as sulfate salt))	AB-1649 MIC ([5]; A. baumannii AB-1649, overnight incubation, lower of duplicate values, trifluoroacetate salt (Example 1 and PMB sulfate))	PA01 MIC ([6]; P. aeruginosa PA01, overnight incubation, lower of duplicate values, trifluoroacetate salt (Example 1 and PMB sulfate))	AB-3167 MIC ([7]; A. baumannii AB-3167, overnight incubation, lower of duplicate values, trifluoroacetate salt (Example 1 and PMB sulfate))	PA-1646 MIC ([8]; P. aeruginosa PA-1646, overnight incubation, lower of duplicate values, trifluoroacetate salt (Example 1 and PMB sulfate))
Cc1ccc(-c2cccc(C(=O)N[C@@H](CCN)C(=O)N[C@H](C(=O)N[C@@H](CN)C(=O)N[C@H]3CCNC(=O)[C@H]([C@@H](C)O)NC(=O)[C@H](CCN)NC(=O)[C@H](CCN)NC(=O)[C@H](CC(C)C)NC(=O)[C@@H](Cc4ccccc4)NC(=O)[C@H](CCN)NC3=O)[C@@H](C)O)c2)cc1 [Example 37] (X20-[Dab]T[Dap][Dab][Dab][dF]L[Dab][Dab]T; lactam 4-C)	18 µM	4 mg/L	4 mg/L	0.5 mg/L	4 mg/L	2 mg/L	1 mg/L	2 mg/L							
COc1nc(-c2ccccc2)ccc1C(=O)N[C@@H](CCN)C(=O)N[C@H](C(=O)N[C@@H](CN)C(=O)N[C@H]1CCNC(=O)[C@H]([C@@H](C)O)NC(=O)[C@H](CCN)NC(=O)[C@H](CCN)NC(=O)[C@H](CC(C)C)NC(=O)[C@@H](Cc2ccccc2)NC(=O)[C@H](CCN)NC1=O)[C@@H](C)O [Example 38] (X10-[Dab]T[Dap][Dab][Dab][dF]L[Dab][Dab]T; lactam 4-C)	16 µM	4 mg/L	1 mg/L	0.25 mg/L	4 mg/L	1 mg/L	0.25 mg/L	1 mg/L							
CC(C)C[C@@H]1NC(=O)[C@@H](Cc2ccccc2)NC(=O)[C@H](CCN)NC(=O)[C@@H](NC(=O)[C@H](CN)NC(=O)[C@@H](NC(=O)[C@H](CCN)NC(=O)c2ccc(Cl)c(-c3ccc(C#N)cc3)c2)[C@@H](C)O)CCNC(=O)[C@H]([C@@H](C)O)NC(=O)[C@H](CCN)NC(=O)[C@H](CCN)NC1=O [Example 39] (X33-[Dab]T[Dap][Dab][Dab][dF]L[Dab][Dab]T; lactam 4-C)	20 µM	4 mg/L	4 mg/L	0.5 mg/L	4 mg/L	1 mg/L	0.5 mg/L	1 mg/L							
CC(C)C[C@@H]1NC(=O)[C@@H](Cc2ccccc2)NC(=O)[C@H](CCN)NC(=O)[C@@H](NC(=O)[C@H](CN)NC(=O)[C@@H](NC(=O)[C@H](CCN)NC(=O)Nc2cccc(-c3ccccc3)c2)[C@@H](C)O)CCNC(=O)[C@H]([C@@H](C)O)NC(=O)[C@H](CCN)NC(=O)[C@H](CCN)NC1=O [Example 40] ({X36-CO}-[Dab]T[Dap][Dab][Dab][dF]L[Dab][Dab]T; lactam 4-C)	15 µM	4 mg/L	1 mg/L	0.25 mg/L	4 mg/L	0.5 mg/L	0.25 mg/L	1 mg/L							
CC(C)C[C@@H]1NC(=O)[C@@H](Cc2ccccc2)NC(=O)[C@H](CCN)NC(=O)[C@@H](NC(=O)[C@H](CN)NC(=O)[C@@H](NC(=O)[C@H](CCN)NS(=O)(=O)c2cccc(-c3ccccc3)c2)[C@@H](C)O)CCNC(=O)[C@H]([C@@H](C)O)NC(=O)[C@H](CCN)NC(=O)[C@H](CCN)NC1=O [Example 41] (X38-[Dab]T[Dap][Dab][Dab][dF]L[Dab][Dab]T; lactam 4-C)	42 µM	>64 mg/L	4 mg/L	0.25 mg/L	64 mg/L	0.25 mg/L	1 mg/L	2 mg/L							
CC(C)C[C@@H]1NC(=O)[C@@H](Cc2ccccc2)NC(=O)[C@H](CCN)NC(=O)[C@@H](NC(=O)[C@H](CN)NC(=O)[C@@H](NC(=O)[C@H](CCN)NC(=O)c2ccc(Oc3ccccc3)cc2)[C@@H](C)O)CCNC(=O)[C@H]([C@@H](C)O)NC(=O)[C@H](CCN)NC(=O)[C@H](CCN)NC1=O [Example 42] ({Benzoyl(4-OPh)}-[Dab]T[Dap][Dab][Dab][dF]L[Dab][Dab]T; lactam 4-C)				0.25 mg/L					27 µM	1 mg/L	4 mg/L	1 mg/L	0.5 mg/L	0.25 mg/L	1 mg/L
CC(C)C[C@@H]1NC(=O)[C@@H](Cc2ccccc2)NC(=O)[C@H](CCN)NC(=O)[C@@H](NC(=O)[C@H](CN)NC(=O)[C@@H](NC(=O)[C@H](CCN)NC(=O)c2ccnc(-c3ccc(Cl)cc3)c2)[C@@H](C)O)CCNC(=O)[C@H]([C@@H](C)O)NC(=O)[C@H](CCN)NC(=O)[C@H](CCN)NC1=O [Example 44] (X26-[Dab]T[Dap][Dab][Dab][dF]L[Dab][Dab]T; lactam 4-C)	30 µM	1 mg/L	1 mg/L	0.25 mg/L	1 mg/L	0.5 mg/L	0.25 mg/L	1 mg/L							
CC(C)C[C@@H]1NC(=O)[C@@H](Cc2ccccc2)NC(=O)[C@H](CCN)NC(=O)[C@@H](NC(=O)[C@H](CN)NC(=O)[C@@H](NC(=O)[C@H](CCN)NC(=O)c2ccc(-c3ccccc3)cc2)[C@@H](C)O)CCNC(=O)[C@H]([C@@H](C)O)NC(=O)[C@H](CCN)NC(=O)[C@H](CCN)NC1=O [Example 45] ({Benzoyl(4-Ph)}-[Dab]T[Dap][Dab][Dab][dF]L[Dab][Dab]T; lactam 4-C)	28 µM	1 mg/L	1 mg/L	0.25 mg/L	1 mg/L	0.5 mg/L	0.25 mg/L	0.5 mg/L							
